Data on one molecule can be found in paper PMC9821308, “The Inhibitory Properties of a Novel, Selective LMTK3 Kinase Inhibitor” (International Journal of Molecular Sciences, 2023).

Experiment [1] concerns the target T1, LMTK3 (lemur tyrosine kinase 3) (Homo sapiens, UniProt Q96Q04).
T1 construct: LMTK3cat (LMTK3 kinase domain)
T1 sequence (Q96Q04 133-411 limits assumed): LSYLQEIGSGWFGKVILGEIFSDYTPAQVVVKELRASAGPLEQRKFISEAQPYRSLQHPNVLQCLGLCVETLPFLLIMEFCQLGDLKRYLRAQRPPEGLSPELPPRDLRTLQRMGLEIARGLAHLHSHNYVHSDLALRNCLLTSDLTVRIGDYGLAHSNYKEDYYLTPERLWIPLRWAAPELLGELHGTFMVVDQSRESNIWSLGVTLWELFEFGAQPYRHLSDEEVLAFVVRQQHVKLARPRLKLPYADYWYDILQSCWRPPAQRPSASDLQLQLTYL
The experiment in a line: microscale thermophoresis; also […] kinase assay on HSP27 (IC50 approximately […]). Type of experiment: binding. For orientation: MST reads how a fluorescent partner responds to local heating, with and without ligand.

The target of the next experiment is MKNK1 (Homo sapiens, UniProt Q9BUB5). Description: KINOMEscan active site-directed competition binding at […]; also radioactive filter binding assay at […].
The next experiment has as its target MKNK2 (Homo sapiens, UniProt Q9HBH9). The experiment is described as above.
For the next experiment, the target named is T2, TRKA (Homo sapiens, UniProt P04629).
T2 construct: gene NTRK1
Description: KINOMEscan active site-directed competition binding at […] ([…]); also radioactive filter binding assay at […].

For the next experiment, the target named is PIM1 (Homo sapiens, UniProt P11309). Description: KINOMEscan active site-directed competition binding at […]; also radioactive filter binding assay at […].
The target in a further experiment is PDGFRA (Homo sapiens, UniProt P16234). The experiment is described as above.

In general, Kd refers to the free concentration of one partner at which half of the binding sites on the other are occupied at equilibrium, for simple one-to-one binding. Read a low Kd as tighter binding. `Clc1ccc(-c2cnc3sc(NCc4cccnc4)nn23)cc1` [C36] gave a Kd in experiment [1] of 1.87 ± 0.2 µM. Further, the “KINOMEscan active site-directed competition binding at 5 μM; also radioactive fi” value is “overlap of kinases targeted by C36 that have been identified via both assays (namely PIM1, TRKA, PDGFRA, MKNK1, MKNK2)” on MKNK1; “overlap of kinases targeted by C36 that have been identified via both assays (namely PIM1, TRKA, PDGFRA, MKNK1, MKNK2)” on MKNK2; “overlap of kinases targeted by C36 that have been identified via both assays (namely PIM1, TRKA, PDGFRA, MKNK1, MKNK2)” on PIM1; “overlap of kinases targeted by C36 that have been identified via both assays (namely PIM1, TRKA, PDGFRA, MKNK1, MKNK2)” on PDGFRA. Moreover, the “KINOMEscan active site-directed competition binding at 5 μM (>90%); also radioac” value on TRKA is “overlap of kinases targeted by C36 that have been identified via both assays (namely PIM1, TRKA, PDGFRA, MKNK1, MKNK2)”.
